Reference: patent US12185743B2, “Processes for transglucosylation of steviol glycosides” (Beijing Gingko-Group Biological Technology Co., Ltd., priority 2019, dated 2025)

Test: Dissolution of RebD and RebM
Assay type: physicochemical
Conditions: without maltooligosaccharides

Row | Structure (SMILES) | dissolution
1 | C=C1C[C@@]23CC[C@H]4[C@@](C)(CCC[C@@]4(C)C(=O)O[C@@H]4O[C@H](CO)[C@@H](O)[C@H](O[C@@H]5O[C@H](CO)[C@@H](O)[C@H](O)[C@H]5O)[C@H]4O[C@@H]4O[C@H](CO)[C@@H](O)[C@H](O)[C@H]4O)[C@@H]2CC[C@]1(O[C@@H]1O[C@H](CO)[C@@H](O)[C@H](O[C@@H]2O[C@H](CO)[C@@H](O)[C@H](O)[C@H]2O)[C@H]1O[C@@H]1O[C@H](CO)[C@@H](O)[C@H](O)[C@H]1O)C3 [RebM, Rebaudioside M] | do not dissolve completely
2 | C=C1C[C@@]23CC[C@H]4[C@@](C)(CCC[C@@]4(C)C(=O)O[C@@H]4O[C@H](CO)[C@@H](O)[C@H](O)[C@H]4O[C@@H]4O[C@H](CO)[C@@H](O)[C@H](O)[C@H]4O)[C@@H]2CC[C@]1(O[C@@H]1O[C@H](CO)[C@@H](O)[C@H](O[C@@H]2O[C@H](CO)[C@@H](O)[C@H](O)[C@H]2O)[C@H]1O[C@@H]1O[C@H](CO)[C@@H](O)[C@H](O)[C@H]1O)C3 [RebD, Rebaudioside D] | do not dissolve completely
